Key:
chickweed [1] = test: Test Example 4: herbicidal effect by soil treatment (Table 19, symbol P); assay type: in vivo, common chickweed (Stellaria media); conditions: amount of applied herbicide 320 g/ha
How it was run: (§1)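 Three weeks of greenhouse growth at 25° C. to 30° C. followed a uniform surface spray of water-diluted emulsion at a predetermined herbicide amount. Seeds had been sown beforehand under about 1.5 cm of sterilized diluvial soil. Grading followed criteria set out in an earlier test.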

false cleavers [2] = test: Test Example 4: herbicidal effect by soil treatment (Table 19, symbol Q); assay type: in vivo, false cleavers (Galium spurium); conditions: amount of applied herbicide 320 g/ha
How it was run: as §1

blackgrass [3] = test: Test Example 4: herbicidal effect by soil treatment (Table 19, symbol J); assay type: in vivo, blackgrass (Alopecurus myosuroides); conditions: amount of applied herbicide 320 g/ha
How it was run: as §1

barnyard grass [4] = test: Test Example 4: herbicidal effect by soil treatment (Table 19, symbol H); assay type: in vivo, barnyard grass (Echinochloa crus-galli); conditions: amount of applied herbicide 320 g/ha
How it was run: as §1

southern crabgrass [5] = test: Test Example 5: herbicidal effect by foliage application, plastic box (Table 20, symbol F); assay type: in vivo, southern crabgrass (Digitaria ciliaris); conditions: foliage application, 320 g/ha, evaluated three weeks after application
How it was run: (§2)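 Plants sown in sterilized diluvial soil and grown 14 days in a greenhouse at 25° C to 30° C, then sprayed on the foliage with the compound's emulsion diluted in water to a predetermined herbicide amount. Injury to weeds and crops scored three weeks after application on a visual rating scale.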

redroot pigweed [6] = test: Test Example 4: herbicidal effect by soil treatment (Table 19, symbol N); assay type: in vivo, redroot pigweed (Amaranthus retroflexus); conditions: amount of applied herbicide 320 g/ha
How it was run: as §1

Japanese bulrush = test: Test Example 2: herbicidal activity, application during weed generation under submerged conditions (Table 17, symbol B); assay type: in vivo, Japanese bulrush (Schoenoplectus juncoides); conditions: AAH 320 g/ha; application during weed generation, submerged conditions
How it was run: (§3)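 Wagner pot, alluvial soil, 4 cm flood; mixed sowing of all species; greenhouse 25° C.–30° C. Emulsifiable formulation, water-diluted to predetermined dose, applied to paddy water at 1–2 leaf stage. Effect rated at 3 wk using the earlier test's scoring criteria.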

southern crabgrass [7] = test: Test Example 4: herbicidal effect by soil treatment (Table 19, symbol F); assay type: in vivo, southern crabgrass (Digitaria ciliaris); conditions: amount of applied herbicide 320 g/ha
How it was run: as §1

redroot pigweed [8] = test: Test Example 5: herbicidal effect by foliage application, plastic box (Table 20, symbol N); assay type: in vivo, redroot pigweed (Amaranthus retroflexus); conditions: foliage application, 320 g/ha, evaluated three weeks after application
How it was run: as §2

lambsquarters [9] = test: Test Example 4: herbicidal effect by soil treatment (Table 19, symbol O); assay type: in vivo, lambsquarters (Chenopodium album); conditions: amount of applied herbicide 320 g/ha
How it was run: as §1

windgrass [10] = test: Test Example 5: herbicidal effect by foliage application, plastic box (Table 20, symbol L); assay type: in vivo, windgrass (Apera spica-venti); conditions: foliage application, 320 g/ha, evaluated three weeks after application
How it was run: as §2

velvetleaf [11] = test: Test Example 4: herbicidal effect by soil treatment (Table 19, symbol M); assay type: in vivo, velvetleaf (Abutilon theophrasti); conditions: amount of applied herbicide 320 g/ha
How it was run: as §1

windgrass [12] = test: Test Example 4: herbicidal effect by soil treatment (Table 19, symbol L); assay type: in vivo, windgrass (Apera spica-venti); conditions: amount of applied herbicide 320 g/ha
How it was run: as §1

chickweed [13] = test: Test Example 5: herbicidal effect by foliage application, plastic box (Table 20, symbol P); assay type: in vivo, common chickweed (Stellaria media); conditions: foliage application, 320 g/ha, evaluated three weeks after application
How it was run: as §2

oval-leafed pondweed = test: Test Example 2: herbicidal activity, application during weed generation under submerged conditions (Table 17, symbol C); assay type: in vivo, oval-leafed pondweed (Monochoria vaginalis); conditions: AAH 320 g/ha; application during weed generation, submerged conditions
How it was run: as §3

blackgrass [14] = test: Test Example 5: herbicidal effect by foliage application, plastic box (Table 20, symbol J); assay type: in vivo, blackgrass (Alopecurus myosuroides); conditions: foliage application, 320 g/ha, evaluated three weeks after application
How it was run: as §2

persian speedwell [15] = test: Test Example 5: herbicidal effect by foliage application, plastic box (Table 20, symbol R); assay type: in vivo, Persian speedwell (Veronica persica); conditions: foliage application, 320 g/ha, evaluated three weeks after application
How it was run: as §2

wild oat [16] = test: Test Example 5: herbicidal effect by foliage application, plastic box (Table 20, symbol I); assay type: in vivo, wild oat (Avena fatua); conditions: foliage application, 320 g/ha, evaluated three weeks after application
How it was run: as §2

Chinese sprangletop = test: Test Example 3: herbicidal effect by foliage application, Wagner pot (Table 18, symbol D); assay type: in vivo, chinese sprangletop (Leptochloa chinensis); conditions: 320 g/ha
How it was run: (§4)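 Plants were sown in alluvial soil held under 0.1–0.5 cm standing water and grown 14 days in a greenhouse at 25–30 °C. An emulsifiable formulation, water-diluted to the set dose, was then sprayed onto the foliage, and effects were scored three weeks later using previously defined criteria.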

barnyard grass [17] = test: Test Example 3: herbicidal effect by foliage application, Wagner pot (Table 18, symbol H); assay type: in vivo, barnyard grass (Echinochloa crus-galli); conditions: 320 g/ha
How it was run: as §4

Italian ryegrass [18] = test: Test Example 5: herbicidal effect by foliage application, plastic box (Table 20, symbol K); assay type: in vivo, Italian ryegrass (Lolium multiflorum); conditions: foliage application, 320 g/ha, evaluated three weeks after application
How it was run: as §2

barnyard grass [19] = test: Test Example 5: herbicidal effect by foliage application, plastic box (Table 20, symbol H); assay type: in vivo, barnyard grass (Echinochloa crus-galli); conditions: foliage application, 320 g/ha, evaluated three weeks after application
How it was run: as §2

rice flat sedge = test: Test Example 3: herbicidal effect by foliage application, Wagner pot (Table 18, symbol E); assay type: in vivo, rice flat sedge (Cyperus iria); conditions: 320 g/ha
How it was run: as §4

velvetleaf [20] = test: Test Example 5: herbicidal effect by foliage application, plastic box (Table 20, symbol M); assay type: in vivo, velvetleaf (Abutilon theophrasti); conditions: foliage application, 320 g/ha, evaluated three weeks after application
How it was run: as §2

lambsquarters [21] = test: Test Example 5: herbicidal effect by foliage application, plastic box (Table 20, symbol O); assay type: in vivo, lambsquarters (Chenopodium album); conditions: foliage application, 320 g/ha, evaluated three weeks after application
How it was run: as §2

persian speedwell [22] = test: Test Example 4: herbicidal effect by soil treatment (Table 19, symbol R); assay type: in vivo, Persian speedwell (Veronica persica); conditions: amount of applied herbicide 320 g/ha
How it was run: as §1

Italian ryegrass [23] = test: Test Example 4: herbicidal effect by soil treatment (Table 19, symbol K); assay type: in vivo, Italian ryegrass (Lolium multiflorum); conditions: amount of applied herbicide 320 g/ha
How it was run: as §1

wild oat [24] = test: Test Example 4: herbicidal effect by soil treatment (Table 19, symbol I); assay type: in vivo, wild oat (Avena fatua); conditions: amount of applied herbicide 320 g/ha
How it was run: as §1

late watergrass = test: Test Example 2: herbicidal activity, application during weed generation under submerged conditions (Table 17, symbol A); assay type: in vivo, late watergrass (Echinochloa oryzicola); conditions: AAH 320 g/ha; application during weed generation, submerged conditions
How it was run: as §3

green foxtail [25] = test: Test Example 4: herbicidal effect by soil treatment (Table 19, symbol G); assay type: in vivo, green foxtail (Setaria viridis); conditions: amount of applied herbicide 320 g/ha
How it was run: as §1

false cleavers [26] = test: Test Example 5: herbicidal effect by foliage application, plastic box (Table 20, symbol Q); assay type: in vivo, false cleavers (Galium spurium); conditions: foliage application, 320 g/ha, evaluated three weeks after application
How it was run: as §2

green foxtail [27] = test: Test Example 5: herbicidal effect by foliage application, plastic box (Table 20, symbol G); assay type: in vivo, green foxtail (Setaria viridis); conditions: foliage application, 320 g/ha, evaluated three weeks after application
How it was run: as §2

CCCC(=O)Oc1c(C)nn(C)c(=O)c1-c1c(-c2ccc(OC(C)C)cc2)sc2ccc(Cl)cc12 [2-108] was tested, and the “P: chickweed, herbicidal effect rating” value (chickweed [1]) was 0 (Herbicidal rate of 5% or less (almost no effect)), the “Q: false cleavers, herbicidal effect rating” value (false cleavers [2]) was 0 (Herbicidal rate of 5% or less (almost no effect)) and the “J: blackgrass, herbicidal effect rating” value (blackgrass [3]) was 0 (Herbicidal rate of 5% or less (almost no effect)). The “H: barnyard grass, herbicidal effect rating” value (barnyard grass [4]) was 0 (Herbicidal rate of 5% or less (almost no effect)), the “herbicidal effect on F: southern crabgrass” value (southern crabgrass [5]) was 0 (Herbicidal rate of 5% or less (almost no effect)) and the “N: redroot pigweed, herbicidal effect rating” value (redroot pigweed [6]) was 0 (Herbicidal rate of 5% or less (almost no effect)). For the same molecule, the “herbicidal effect rating, B: Japanese bulrush” value (Japanese bulrush) was 0 (Herbicidal rate of 5% or less (almost no effect)), the “F: southern crabgrass, herbicidal effect rating” value (southern crabgrass [7]) was 0 (Herbicidal rate of 5% or less (almost no effect)) and the “herbicidal effect on N: redroot pigweed” value (redroot pigweed [8]) was 3 (Herbicidal rate of 40% or more and less than 70%). For the same molecule, the “O: lambsquarters, herbicidal effect rating” value (lambsquarters [9]) was 0 (Herbicidal rate of 5% or less (almost no effect)), the “herbicidal effect on L: windgrass” value (windgrass [10]) was 0 (Herbicidal rate of 5% or less (almost no effect)) and the “M: velvetleaf, herbicidal effect rating” value (velvetleaf [11]) was 0 (Herbicidal rate of 5% or less (almost no effect)). For the same molecule, the “L: windgrass, herbicidal effect rating” value (windgrass [12]) was 0 (Herbicidal rate of 5% or less (almost no effect)), the “herbicidal effect on P: chickweed” value (chickweed [13]) was 4 (Herbicidal rate of 70% or more and less than 90%) and the “herbicidal effect rating, C: oval-leafed pondweed” value (oval-leafed pondweed) was 0 (Herbicidal rate of 5% or less (almost no effect)). For the same molecule, the “herbicidal effect on J: blackgrass” value (blackgrass [14]) was 0 (Herbicidal rate of 5% or less (almost no effect)), the “herbicidal effect on R: persian speedwell” value (persian speedwell [15]) was 5 (Herbicidal rate of 90% or more (almost completely withered)) and the “herbicidal effect on I: wild oat” value (wild oat [16]) was 0 (Herbicidal rate of 5% or less (almost no effect)). For the same molecule, the “herbicidal effect on D (Chinese sprangletop), rating 0-5” value (Chinese sprangletop) was 0 (Herbicidal rate of 5% or less (almost no effect)), the “herbicidal effect on H (barnyard grass), rating 0-5” value (barnyard grass [17]) was 4 (Herbicidal rate of 70% or more and less than 90%) and the “herbicidal effect on K: Italian ryegrass” value (Italian ryegrass [18]) was 0 (Herbicidal rate of 5% or less (almost no effect)). For the same molecule, the “herbicidal effect on H: barnyard grass” value (barnyard grass [19]) was 0 (Herbicidal rate of 5% or less (almost no effect)), the “herbicidal effect on E (rice flat sedge), rating 0-5” value (rice flat sedge) was 2 (Herbicidal rate of 20% or more and less than 40%) and the “herbicidal effect on M: velvetleaf” value (velvetleaf [20]) was 2 (Herbicidal rate of 20% or more and less than 40%). For the same molecule, the “herbicidal effect on O: lambsquarters” value (lambsquarters [21]) was 1 (Herbicidal rate of 5% or more and less than 20%), the “R: persian speedwell, herbicidal effect rating” value (persian speedwell [22]) was 4 (Herbicidal rate of 70% or more and less than 90%) and the “K: Italian ryegrass, herbicidal effect rating” value (Italian ryegrass [23]) was 0 (Herbicidal rate of 5% or less (almost no effect)). For the same molecule, the “I: wild oat, herbicidal effect rating” value (wild oat [24]) was 0 (Herbicidal rate of 5% or less (almost no effect)), the “herbicidal effect rating, A: late watergrass” value (late watergrass) was 3 (Herbicidal rate of 40% or more and less than 70%) and the “G: green foxtail, herbicidal effect rating” value (green foxtail [25]) was 0 (Herbicidal rate of 5% or less (almost no effect)). For the same molecule, the “herbicidal effect on Q: false cleavers” value (false cleavers [26]) was 0 (Herbicidal rate of 5% or less (almost no effect)) and the “herbicidal effect on G: green foxtail” value (green foxtail [27]) was 0 (Herbicidal rate of 5% or less (almost no effect)).

Reference: patent publication US20230085307A1, “PYRIDAZINONE COMPOUND AND HERBICIDE” (NISSAN CHEMICAL CORPORATION, priority 2019, published 2023)
